Entries after “also recorded” stand apart in the source; their conditions may differ.
Key:
[1] = Rat PK, cassette dosing, IV and PO; type: in vivo; conditions: for Cl (mL/min/Kg) / Vss (L/Kg) / AUC / Cmax / Tmax / half-life: Mean (SE); for AUC / Cmax / Tmax / half-life / bioavailability: plasma
Method: Rat PK data was determined using a cassette dosing format with 5 compounds administered to each of three rats for IV and three rats for PO. The IV dose was 1 mg/kg for each compound in 8.75% solutol, 8.75% ethanol, 12.5% DMSO and 70% water by volume. The PO dose was 2 mg/kg for each compound in 1% methylcellulose in water, 10% DMSO by volume. Plasma IV samples were collected at 15 min, 30 min, 1 hr, 2 hrs, 4 hrs, 8 hrs, and 24 hrs. Plasma PO samples were collected at 30 min, 1 hr, 2 hrs, 4 hrs, 8 hrs, and 24 hrs. Plasma drug concentrations were determined by LC/MS/MS after standard curve calibration for each test article. Dosing solutions were also analyzed for test article and used to calculate the administered dose. The PK parameters were calculated using WinNonLin (v 6.3, Phoenix 64, Pharsight) using a noncompartmental model.
Tables 1 and 2 show comparative data for both intravenous (IV) and peroral (PO) administration in rat for Compound P-001 of this disclosure and a similar structural compound disclosed in the WO 2014/145051, Compound Z. Values are reported as the Mean with the Standard Error (SE) in parentheses.

IPC298 Xenograft = test: IPC298 xenograft model, tumor growth; type: in vivo, mice; conditions: for antitumor activity (in words): 10 mg/kg po QD x16; for Average Tumor Volume (mm^3) / Tumor Size (Day 27, mm^3) / TGI (%): 10 mg/kg po QD; for TGI (%): tumor growth inhibition
Method: Treatment: The treatments started on Day 11 after tumor inoculation when the mean tumor size reached approximately 150 mm^3. Mice were randomized into 10 study groups and each group consisted of 8 mice. The test articles were administrated to the tumor-bearing mice according to predetermined treatment regimen as shown in Table 3.
Tumor measurements and the endpoints: The major endpoint was to see if the tumor growth could be delayed or regressed. Tumor size was measured twice a week in two dimensions using a caliper, and the volume was expressed in mm^3 using the formula: V=0.5a×b^2 where a and b are the long and short diameters of the tumor, respectively. The tumor size was then used for calculation of tumor growth inhibition (TGI, in percent). The TGI value is an indication of antitumor effectiveness: TGI=(1−T/C)×100%. T and C are the means of relative tumor volumes of the treated and control groups, respectively. T and C are calculated using the formula: T=Td/T0×100%, C=Cd/C0×100%, where Td and Cd are tumor volumes of the treated and control animals, respectively, on Day 28 after tumor inoculation; T0 and C0 are tumor volumes of the treated and control animals, respectively, at the start of the treatment

[2] = Toxicity profile, body weight in Ba/F3 splenomegaly model; type: in vivo; parameters: Delta Body Weight Loss: unit not given here; conditions: for observed toxicity (in words): 10 mg/kg over 7 days of dosing; for Delta Body Weight Loss: 10 mg/kg oral QD
Excerpt: The […] cell line, Ba/F3, depends on the addition of IL-3 for growth in cell culture. However Ba/F3 cells engineered to express a full length oncogene is capable of rendering Ba/F3 cells factor-independent, but become apoptotic when the oncogene or downstream signaling is inhibited by the addition of small molecule inhibitors. When injected into the tail veins of nude mice, the factor-independent Ba/F3 cells home to the spleen and proliferate to cause a marked splenomegaly. The in vivo proliferation of the factor-independent Ba/F3 cells and appearance of splenomegaly are directly dependent on the activity of the Ba/F3 cells and can be blocked by oral administration of compounds that are effective inhibitors of cell growth. Therefore, this animal model can be used to ascertain the effective doses for Ba/F3 cell inhibition, evaluation of both PK/PD effects as well as a readout of toxicity or MTD.
FIG. 2 illustrates the observed toxicity when dosing Compound P-001 and Compound Z at 10 mg/kg to nu/nu mice over a period of 7 days.

[3] = Table 2, titled Peroral (PO) Administration in Rat
[4] = 1 mg/kg, Table 1, titled Intravenous (IV) Administration in Rat
[5] = 2 mg/kg, Table 2, titled Peroral (PO) Administration in Rat

Row | SMILES | Cl (mL/min/Kg) [1, 3] | Vss (L/Kg) [1, 3] | AUC [1, 4] [ng·h/mL] | Cmax [1, 4] [ng/mL] | Tmax [1, 4] [min] | half-life [1, 4] [min] | AUC [1, 5] [ng·h/mL] | bioavailability [1, 5] [%] | antitumor activity (in words) (IPC298 Xenograft) | Average Tumor Volume (mm^3) (IPC298 Xenograft; Day 0) | Average Tumor Volume (mm^3) (IPC298 Xenograft; Day 4) | Average Tumor Volume (mm^3) (IPC298 Xenograft; Day 6) | Average Tumor Volume (mm^3) (IPC298 Xenograft; Day 8) | Average Tumor Volume (mm^3) (IPC298 Xenograft; Day 11) | Average Tumor Volume (mm^3) (IPC298 Xenograft; Day 13) | Tumor Size (Day 27, mm^3) (IPC298 Xenograft) [mm^3] | TGI (%) (IPC298 Xenograft) | observed toxicity (in words) [2] | Delta Body Weight Loss ([2]; Day 1) | Delta Body Weight Loss ([2]; Day 2) | also measured
1 | Cc1noc(C)c1-c1cnc2c(-c3ccc(C(=O)O)cc3)cn(C(C)(c3ccccn3)c3ccccn3)c2c1 [Compound P-001, 4-(1-(1,1-di(pyridin-2-yl)ethyl)-6-(3,5-dimethylisoxazol-4-yl)-1H-pyrrolo[3,2-b]pyridin-3-yl)benzoic acid] | 3 (0) mL/min/Kg | 0.469 (0.015) L/Kg | 7670 | 1210 | 40.2 | 248 | 7670 | 103 | strong antitumor activity; also recorded: strong therapeutic efficacy | 124.7 | 94.5 | 91.5 | 90.0 | 96.9 | 99.2 | 99.2 ± 13.5 | 112 | no toxicity was observed | 0 | 0.75 | rat PK compared to Compound Z (in words) ([1]; IV and PO): dramatic improvement; Delta Body Weight Loss ([2]; Day 3): 1.375; Delta Body Weight Loss ([2]; Day 5): 1.125; Delta Body Weight Loss ([2]; Day 6): 1.825; Delta Body Weight Loss ([2]; Day 7): 2.075
2 | Cc1noc(C)c1-c1cnc2c(-c3ccc(C(=O)O)cc3)cn(C(c3ccccn3)c3ccccn3)c2c1 [Compound Z, reference compound] | 36 (4) mL/min/Kg | 1.061 (0.109) L/Kg | 125 | 80 | 30 | 78.6 | 125 | 17 | moderate antitumor activity | 124.0 | 119.8 | 124.0 | 120.6 | 106.8 | 141.5 | 141.5 ± 16.3 | 92 | significant toxicity after the 2nd day of dosing | 0 | −0.125 | Delta Body Weight Loss ([2]; Day 3): −0.6; Delta Body Weight Loss ([2]; Day 5): −1.125; Delta Body Weight Loss ([2]; Day 6): −2.475; Delta Body Weight Loss ([2]; Day 7): −3.75
